From patent publication US20230330021A1, “DRUG-LOADED POLYMER VESICLE HAVING ASYMMETRIC MEMBRANE STRUCTURE, PREPARATION METHOD THEREFOR, AND APPLICATION THEREOF IN PREPARATION OF DRUGS FOR TREATING ACUTE MYELOID LEUKEMIA” (SOOCHOW UNIVERSITY, priority 2020, published 2023) come the findings set out here.

Experiment [1] deals with orthotopic MV4-11-GFP-Luc-bearing mice. Briefly: Antitumor effect of A6-cPS-DNR in orthotopic AML model. Format: in vivo. To be noted: DNR 2 mg/kg. The method, then:
(§1) Construction of an in situ MV4-11-GFP-Luc acute myeloid leukemia mouse model: All animal experiments and operations were approved by the Experimental Animal Center of Soochow University and the Animal Care and Use Committee of Soochow University. […] Mice were first irradiated with X-rays (2.0 Gy), then the antibody CD122 (10 mg/kg mouse) was injected intraperitoneally, and 6 hours later, MV4-11-GFP-Luc cells (1×10^5 cells/mouse) injected into mice by tail vein. After inoculation, the proliferation and proliferation of leukemia cells in mice were observed by in vivo imaging of small animals (FIG. 12).
Antitumor effect of A6-cPS-DNR in orthotopic MV4-11-GFP-Luc-bearing mice: To study the antitumor effect of A6-cPS-DNR on orthotopic MV4-11-GFP-Luc-bearing mice Tumor effect (refer to Example 11 for the design scheme). The DNR dose was 2 mg/kg, and A6-cPS-DNR was increased by 3 mg/kg in a high-dose group. The blank control group was injected with 100 µL PBS. There were 3 tumor-bearing mice in each group.

The next experiment deals with OCI-AML-3. Put plainly: Cell proliferation inhibition assay (CCK8 method). Format: cell-based. The settings on record: CD44-negative OCI-AML-3.
The test system of experiment [2] is MV4-11 cells. Put plainly: Cell cycle, PI flow cytometry. Format: cell-based. The settings on record: VCR 10 ng/mL. Here is the method:
The cell culture and treatment of the cell cycle experiment of A6-cPS-VCR refer to the above method, and only add 1 mL of PBS to resuspend the cells at the end. Then, 4 mL of ice 95% ethanol was added to fix the cells for 12 hours, and 400 µL of PI staining solution was added for 30 minutes in the dark on a shaker at 37° C. Finally, the cells were tested by flow cytometry.
In general terms: A flow cytometer gives signals particle by particle.

Experiment [3] concerns orthotopic MV4-11-GFP-Luc-bearing mice. Briefly: Antitumor effect of A6-cPS-VCR in orthotopic AML model. The experiment is classed as in vivo. Here is the method: as §1
Antitumor effect of A6-cPS-VCR in orthotopic MV4-11-GFP-Luc-bearing mice: To study the antitumor effect of A6-cPS-VCR on orthotopic MV4-11-GFP-Luc bearing mice Tumor effect, the following treatment plan was designed (FIG. 14): the first injection was injected on the 6th day after the inoculation, which was counted as the 0th day, and the second injection was given on the 2nd day. The dose of VCR was 0.50 mg/kg, and the control group was injected with 100 µL PBS. There were 10 tumor-bearing mice in each group. […] Mice lose weight before dying. […] And cPS-VCR (11 days), prolonged 1.5-2.7 times.
In order to further accurately and quantitatively analyze the proliferation of leukemia cells in mice, on the 4th day, 3 mice in each group were randomly selected for dissection, and the leukocytes in the liver, spleen and bone marrow were extracted, and the content of leukemia cells was detected by flow cytometry. And the liver, spleen and bone marrow slices were analyzed to observe the damage.
Acute myeloid leukemia cells abnormally proliferate in the bone marrow of mice, resulting in osteolytic lesions in mice. Therefore, micro-CT was used to evaluate the relevant indexes of the femur of each group of mice.

The subject of experiment [4] is MV4-11 cells. Briefly: Apoptosis, AnnexinV/PI flow cytometry. The experiment is classed as cell-based. To be noted: VCR 10 ng/mL. The method, then: A6-cPS-VCR-targeted polymer vesicle nanomedicine induces apoptosis and cell cycle: First, MV4-11 cells were plated in a 24-well plate at a density of 2 × 10^5 cells/well and cultured for 24 hours. 20 µL of A6-cPS-VCR, cPS-VCR or VCR (concentration of VCR was 10 ng/mL) was added, respectively, and 20 µL of PBS was added to the control group. After 4 hours of incubation, the supernatant was removed by centrifugation (3000 rpm, 10 minutes), then fresh RPMI-1640 complete medium was added, the cells were blown off and placed in the incubator for a further 44 hours. Cells were collected in a flow tube, centrifuged (800 rpm, 5 min) and washed twice with 4° C. cold PBS. Finally, 200 µL of binding buffer was added to resuspend the cells. After pipetting evenly, taken 100 µL of it into the flow tube, added 5 µL of AnnexinV-F647 and 10 µL of PI solution in sequence, and stain at room temperature for 15 minutes in the dark, then add 400 µL of PBS and mix evenly to stop the staining, and detection by a flow cytometer within 1 hour. Among them, the cells that were treated in a 50° C. water bath for 5 minutes and fixed with 4% paraformaldehyde for 5 minutes were added with 5 µL of AnnexinV-F647 solution and 10 µL of PI solution for staining for 15 minutes respectively. Cytometer for testing.

A further experiment has as its system YNH-1. Put plainly: Cell proliferation inhibition assay (CCK8 method). Format: cell-based. To be noted: CD44-negative YNH-1.

Counter-ions that a name gives are not always drawn.

For the molecule `COc1cccc2c1C(=O)c1c(O)c3c(c(O)c1C2=O)C[C@@](O)(C(C)=O)C[C@@H]3O[C@H]1C[C@H](N)[C@H](O)[C@H](C)O1` [DNR, daunorubicin], the “fluorescence quantification, bioluminescence imaging” value in experiment [1] is “decreased slightly”.
Regarding `CC[C@]1(O)C[C@H]2CN(CCc3c([nH]c4ccccc34)[C@@](C(=O)OC)(c3cc4c(cc3OC)N(C=O)[C@H]3[C@@](O)(C(=O)OC)[C@H](OC(C)=O)[C@]5(CC)C=CCN6CC[C@]43[C@@H]65)C2)C1` [VCR, vincristine sulfate], the proliferation inhibition result with OCI-AML-3 and with YNH-1 was “no significant difference” in each case. For the same molecule, the “effect on cell cycle” value in the experiment on MV4-11 cells [2] is given as “arresting cells in G2/M phase”. The “leukemia levels in the liver, spleen and bone marrow, flow cytometry” value in experiment [3] (4th day, 3 mice per group) is listed as “reduced”. In addition, in experiment [3] (VCR 0.50 mg/kg), the median survival time is 9 days. Besides, the “proliferation of MV4-11-GFP-Luc cells, bioluminescence imaging” value in experiment [3] (VCR 0.50 mg/kg, injections day 0 and day 2) is recorded as “proliferated slowly during drug administration, but proliferated rapidly after drug withdrawal”. In the experiment with MV4-11 cells [4], this molecule had an apoptosis of 16.7%.
